ChEMBL document CHEMBL4229345, “Inhibition of trypanosome alternative oxidase without its N-terminal mitochondrial targeting signal (ΔMTS-TAO) by cationic and non-cationic 4-hydroxybenzoate and 4-alkoxybenzaldehyde derivatives active against T. brucei and T. congolense” (Eur J Med Chem, 2018)

Tests used:
[1] = tested on: Trypanosoma brucei brucei; test: Resistance factor, ratio of EC50 for bloodstream trypomastigote stage of wild-type Trypanosoma brucei brucei Lister 427 in presence of 5 mM glycerol to EC50 for bloodstream trypomastigote stage of wild-type Trypanosoma brucei brucei Lister 427; type: functional
[2] = tested on: Trypanosoma brucei brucei; test: Resistance factor, ratio of EC50 for bloodstream trypomastigote stage of Trypanosoma brucei brucei with AQP2/3-dd knock out to EC50 for bloodstream trypomastigote stage of wild-type Trypanosoma brucei brucei Lister 427; type: functional
[3] = tested on: Trypanosoma brucei brucei; test: Anti-parasitic activity against bloodstream trypomastigote stage of Trypanosoma brucei brucei with AQP triple knock out after 48 hrs by resazurin-based assay; type: functional, organism-based
[4] = tested on: Trypanosoma brucei brucei; test: Anti-parasitic activity against bloodstream trypomastigote stage of wild-type Trypanosoma brucei brucei Lister 427 after 48 hrs by resazurin-based assay; type: functional, organism-based; conditions: Lister 427, 48 h
[5] = Inhibition of recombinant N-terminal His6 tagged SUMO-fused Trypanosoma brucei brucei TC221 TAO MTS deletion mutant expressed in Escherichia coli FN102 preincubated for 2 mins followed by ubiquinol-1 addition measured over 2 mins by double beam-dual wavelength UV-spectrophotometry
[6] = tested on: Trypanosoma brucei brucei; test: Resistance factor, ratio of EC50 for bloodstream trypomastigote stage of Trypanosoma brucei brucei AQP triple knock out to EC50 for bloodstream trypomastigote stage of wild-type Trypanosoma brucei brucei Lister 427; type: functional
[7] = Resistance factor, ratio of EC50 for bloodstream trypomastigote stage of pentamidine/diminazene/melaminophenyl arsenical resistant Trypanosoma brucei B48 to EC50 for bloodstream trypomastigote stage of wild-type Trypanosoma brucei brucei Lister 427; type: functional
[8] = tested on: Trypanosoma brucei brucei; test: Anti-parasitic activity against bloodstream trypomastigote stage of Trypanosoma brucei brucei with AQP2/3-dd knock out after 48 hrs by resazurin-based assay; type: functional, organism-based
[9] = tested on: Trypanosoma brucei brucei; test: Anti-parasitic activity against bloodstream trypomastigote stage of wild-type Trypanosoma brucei brucei Lister 427 after 48 hrs in presence of 5 mM glycerol by resazurin-based assay; type: functional, organism-based; conditions: Lister 427, 48 h
Trypanosoma brucei = test: Anti-parasitic activity against bloodstream trypomastigote stage of pentamidine/diminazene/melaminophenyl arsenical resistant Trypanosoma brucei B48 after 48 hrs by resazurin-based assay; type: functional, organism-based; conditions: B48, 48 h
[10] = Selectivity index, ratio of CC50 for HFF cells to EC50 for bloodstream trypomastigote stage of wild-type Trypanosoma brucei brucei Lister 427; type: toxicity; conditions: human, read-out: Ratio CC50/EC50
[11] = Cytotoxicity against HFF cells assessed as reduction in cell viability after 30 hrs by resazurin-based assay; conditions: human
Trypanosoma congolense = test: Anti-parasitic activity against bloodstream form of Trypanosoma congolense IL3000 after 48 hrs by resazurin-based assay; type: functional, organism-based; conditions: IL3000, 48 h
[12] = Cytotoxicity against HEK cells assessed as reduction in cell viability after 30 hrs by resazurin-based assay; conditions: human
[13] = Selectivity index, ratio of CC50 for HEK cells to EC50 for bloodstream trypomastigote stage of wild-type Trypanosoma brucei brucei Lister 427; type: toxicity; conditions: human, read-out: Ratio CC50/EC50
[14] = Selectivity index, ratio of CC50 for HFF cells to EC50 for bloodstream form of Trypanosoma congolense IL3000; type: toxicity; conditions: human, read-out: Ratio CC50/EC50
[15] = Competitive inhibition of recombinant N-terminal His6 tagged SUMO-fused Trypanosoma brucei brucei TC221 TAO MTS deletion mutant expressed in Escherichia coli FN102 preincubated for 2 mins followed by ubiquinol-1 addition measured over 2 mins by Lineweaver-Burk plot analysis

SMILES	Ratio EC50 [1]	Ratio EC50 [2]	EC50 [3] [µM]	EC50 [4] [µM]	IC50 [5] [nM]	Ratio EC50 [6]	Ratio EC50 [7]	EC50 [8] [µM]	EC50 [9] [µM]	EC50 (Trypanosoma brucei) [µM]	selectivity ratio [10]	CC50 at 30 h [11] [µM]	EC50 (Trypanosoma congolense) [µM]	CC50 at 30 h [12] [µM]	selectivity ratio [13]	selectivity ratio [14]	Ki [15] [nM]
Cc1cc(O)ccc1C(=O)OCCCCCCCCCCCCCCBr	0.52	0.49	7.2	14.4	7	0.5	1	7.1	7.5	14.4	> 13	> 200					
O=C(OCCCCCCCCCCCCCCCC[P+](c1ccccc1)(c1ccccc1)c1ccccc1)c1ccc(O)cc1O					> 5000												
N=C(N)c1ccc(OCCCCCOc2ccc(C(=N)N)cc2)cc1 [PENTAMIDINE]	1.14	14.1	0.064	0.0033		19.2	285	0.047									
O=C(OCCCCCCCCCCCCCCBr)c1ccc(O)cc1F	0.49	0.46	7	14.7	30	0.48	1.2	6.8	7.19	17.3	> 13	> 200	> 50				
O=C(OCCCCCCCCCCCCCCCCOC(=O)c1ccc(O)cc1O)c1ccc(O)cc1O	0.46	0.54	9.3	26.7	12.3	0.35	1.2	14.3	12.4	31.9			> 100	> 400	> 15		
O=COCCCCCCCCCCCCCCOc1ccc(C=O)c(O)c1	0.48	0.38	1.82	3.8	330	0.48	1	1.4	1.8	3.6	> 52	> 200					
O=C(OCCCCCCCCCCCCCC[P+](c1ccccc1)(c1ccccc1)c1ccccc1)c1ccc(O)cc1O					1460												
O=C(OCCCCCCCCCCCCCCBr)c1ccc(O)cc1O					10.8												
O=C(OCCCCCCCCCCCCCCCCBr)c1ccc(O)cc1O	0.24	0.32	5.1		12.4	0.11	1.07	14.5	11.1					> 400	> 8		
Cc1cc(O)ccc1C(=O)O					112000												
O=Cc1ccc(OCCCCCCCCCCCCCCBr)cc1O	0.61	0.48	7.9	17.6	73	0.45	0.9	8.4	10.7	15.5	> 11	> 200	42.6			> 4.6	
Cc1cc(O)ccc1C(=O)OCCCCCCCCCCCCCCOC=O	1.92	0.34	1.8	4.1	1.1	0.45	1.1	1.4	7.8	4.44	> 48	> 200					4.1
O=Cc1ccc(OCCCCCCCCCCCCCCOc2ccc(C=O)c(O)c2)cc1O			400	400	240			400	400	400		> 200	400				
